Measured values: paper PMC8055690, “Flavonoids increase melanin production and reduce proliferation, migration and invasion of melanoma cells by blocking endolysosomal/melanosomal TPC2” (Scientific Reports, 2021)

Columns and labels:
[1] = target: T1, two-pore channel 2 (hTPC2) (Homo sapiens, UniProt Q8NHX9); test: endolysosomal patch-clamp, block of PI([…])P2-evoked current; format: biochemical
T1 construct: gene TPCN2; hTPC2-YFP stably expressed in HEK293 cells

[2] = target: T1, two-pore channel 2 (hTPC2); test: endolysosomal patch-clamp, single concentration […]; format: cell-based

T1 sequence (Q8NHX9 whole entry): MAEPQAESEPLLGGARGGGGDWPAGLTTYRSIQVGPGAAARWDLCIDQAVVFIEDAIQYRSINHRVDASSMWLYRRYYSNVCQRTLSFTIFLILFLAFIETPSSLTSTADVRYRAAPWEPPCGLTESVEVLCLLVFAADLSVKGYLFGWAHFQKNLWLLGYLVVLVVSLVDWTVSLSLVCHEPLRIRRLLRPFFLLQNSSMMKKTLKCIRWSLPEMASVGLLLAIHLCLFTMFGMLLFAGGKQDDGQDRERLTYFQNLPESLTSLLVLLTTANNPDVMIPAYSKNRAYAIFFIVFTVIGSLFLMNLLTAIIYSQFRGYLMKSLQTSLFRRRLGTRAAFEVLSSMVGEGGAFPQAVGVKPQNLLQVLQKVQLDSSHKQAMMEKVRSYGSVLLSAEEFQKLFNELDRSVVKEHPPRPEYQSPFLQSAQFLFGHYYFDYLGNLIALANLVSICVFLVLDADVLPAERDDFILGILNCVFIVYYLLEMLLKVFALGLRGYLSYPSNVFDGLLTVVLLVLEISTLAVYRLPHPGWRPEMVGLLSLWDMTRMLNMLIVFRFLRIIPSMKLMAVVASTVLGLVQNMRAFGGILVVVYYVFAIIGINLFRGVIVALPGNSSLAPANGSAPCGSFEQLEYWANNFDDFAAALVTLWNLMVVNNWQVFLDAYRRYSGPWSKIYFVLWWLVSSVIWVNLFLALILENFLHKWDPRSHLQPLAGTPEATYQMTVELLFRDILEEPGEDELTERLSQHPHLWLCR

SMILES	IC50 [1] [µM]	endolysosomal patch-clamp, single concentration 10 μM [2]
COc1ccc(-c2coc3cc(O)cc(O)c3c2=O)cc1O [MT-8, pratensein]	2.6 ± 0.3	–
O=C1C[C@@H](c2ccc(O)cc2)Oc2cc(O)cc(O)c21 [MT-16, naringenin]	74 ± 9	–
COc1ccc(-c2coc3cc(O)cc(O)c3c2=O)cc1 [TR-9]	–	TR-9 and TR-12 which showed variable effects on melanin generation also proved to be less efficacious inhibitors of hTPC2
O=C1C[C@@H](c2ccccc2)Oc2cc(O)cc(O)c21 [TR-12]	–	TR-9 and TR-12 which showed variable effects on melanin generation also proved to be less efficacious inhibitors of hTPC2
COc1ccc([C@@H]2COc3c(ccc(O)c3OC)C2)c(OC)c1O [UM-9, duartin]	9.5 ± 2.8	–
